Measurements from patent publication US5807854A, “Pyrimidone derivatives with antifungal activity” (J. Uriah & Cia. S.A., priority 1995, dated 1998).
≈ marks a conversion by molar mass, not a printed value.

Assays:
[1] = test system: C. albicans; experiment: In vitro activity by the agar dilution method, C. albicans; assay type: cell-based; settings: Candida albicans; Kimmig's agar, 25° C., 48 h; read-out: MIC (minimal inhibitory concentration), C. albicans
Experimental: (§1) In vitro activity was evaluated against C. albicans, C. krusei, and Aspergillus fumigatus by the agar dilution method. Test strains were either clinical isolates or were obtained from ATCC. Stock solutions containing 800 μg/mL were prepared by solving the test products in 50% ethanol. The culture medium used was Kimmig's agar (K. A., E. Merck) supplemented with 0.5% glycerol. Plates containing serial dilutions (80 to 0.025 gg/imL) of the test products were inoculated with 10 μL of the fungal inocula, containing 10^5 colony forming units (cfu)/mL. Plates were incubated at 25° C. during 48 h for Candida sp. and during 5 days for Apergillus fumigatus. Following incubation MICs (minimal inhibitory concentrations) were determined.

[2] = test system: C. krusei; experiment: In vitro activity by the agar dilution method, C. krusei; assay type: cell-based; settings: Pichia kudriavzevii; Kimmig's agar, 25° C., 48 h; read-out: MIC (minimal inhibitory concentration), C. krusei
Experimental: as §1

[3] = test system: Aspergillus fumigatus; experiment: In vitro activity by the agar dilution method, Aspergillus fumigatus; assay type: cell-based; settings: 120 h, Kimmig's agar, 25° C., 5 days, read-out: MIC (minimal inhibitory concentration), Asp. fumigatus
Experimental: as §1

[4] = test system: Candida albicans; experiment: In Vivo Activity (Systemic Candidiasis); settings: po, 576 h, male mice, i.v. infection, read-out: protection on the day where all the animals in the control group had died; for responders at 10 mg/kg: orally at 10 mg/kg (asterisk) at 1, 4 and 24 h after infection; for responders at 1 mg/kg: orally at 1 mg/kg at 1, 4 and 24 h after infection
Experimental: Groups of 10 male mice were inoculated i.v. with 0.2 mL of a suspension containing (2-8)×10^7 cfu/mL of Candida albicans. Compounds were administered orally at 1 mg/kg (or at 10 mg/kg for those compounds marked with an asterisk) at times 1, 4 and 24 h after infection.

[5] = test system: systemic aspergillosis; experiment: In Vivo Activity (Systemic Aspergillosis); parameters: species or system mice; settings: p.o. 20 mg/kg/day, 5 days; control mortality on day 25 was 90%

C[C@@H](n1cnc2cc(Cl)ccc2c1=O)[C@](O)(Cn1cncn1)c1ccc(F)cc1F [Example 1, (1R,2R)-7-Chloro-3-[2-(2,4-difluorophenyl)-2-hydroxy-1-methyl-3-(1H-1,2,4-triazol-1-yl)propyl]quinazolin-4(3H)-one]
MIC [1]: ≤ 0.03 µg/mL | MIC [2]: 0.63 µg/mL (≈ 1.46 µM) | MIC [3]: 0.31 µg/mL (≈ 0.718 µM) | responders at 10 mg/kg [4]: 100% | protection on day 25 postinfection [5]: 60-100%

C[C@@H](n1cnc2cc(C#N)ccc2c1=O)[C@](O)(Cn1cncn1)c1ccc(F)cc1F [Example 2, (1R,2R)-7-Cyano-3-[2-(2,4-difluorophenyl)-2-hydroxy-1-methyl-3-(1H-1,2,4-triazol-1-yl)propyl]quinazolin-4(3H)-one]
MIC [1]: ≤ 0.03 µg/mL | MIC [2]: 1.25 µg/mL (≈ 2.96 µM) | MIC [3]: 1.25 µg/mL (≈ 2.96 µM) | protection on day 25 postinfection [5]: 60-100%

C[C@@H](n1cnc2cc(C(F)(F)F)ccc2c1=O)[C@](O)(Cn1cncn1)c1ccc(F)cc1F [Example 16, (1R,2R)-3-[2-(2,4-Difluorophenyl)-2-hydroxy-1-methyl-3-(1H-1,2,4-triazol-1-yl)propyl]-7-trifluoromethylquinazolin-4(3H)-one]
MIC [1]: ≤ 0.03 µg/mL | MIC [2]: 0.63 µg/mL (≈ 1.35 µM) | MIC [3]: 2.5 µg/mL (≈ 5.37 µM) | responders at 1 mg/kg [4]: 100% | protection on day 25 postinfection [5]: 60-100%

C[C@@H](n1cnc2cc(-c3ccc(Cl)cc3)sc2c1=O)[C@](O)(Cn1cncn1)c1ccc(F)cc1F [Example 31, (1R,2R)-6-(4-Chlorophenyl)-3-[2-(2,4-difluorophenyl)-2-hydroxy-1-methyl-3-(1H-1,2,4-triazol-1-yl)propyl]thieno[3,2-d]pyrimidin-4(3H)-one]
MIC [1]: ≤ 0.03 µg/mL | MIC [2]: 0.07 µg/mL (≈ 0.136 µM) | MIC [3]: 2.5 µg/mL (≈ 4.86 µM) | responders at 1 mg/kg [4]: 100% | protection on day 25 postinfection [5]: 60-100%

C[C@@H](n1cnc2cc(-c3ccc(C#N)cc3)sc2c1=O)[C@](O)(Cn1cncn1)c1ccc(F)cc1F [Example 32, (1R,2R)-4-[3-[2-(2,4-Difluorophenyl)-2-hydroxy-1-methyl-3-(1H-1,2,4-triazol-1-yl)propyl]-4-oxo-3,4-dihydrothieno[3,2-d]pyrimidin-6-yl]benzonitrile]
responders at 1 mg/kg [4]: 100% | protection on day 25 postinfection [5]: 60-100%

C[C@@H](n1cnc2cc(Br)ccc2c1=O)[C@](O)(Cn1cncn1)c1ccc(F)cc1F [Example 73, (1R,2R)-7-Bromo-3-[2-(2,4-difluorophenyl)-2-hydroxy-1-methyl-3-(1H-1,2,4-triazol-1-yl)propyl]quinazolin-4(3H)-one]
MIC [1]: ≤ 0.03 µg/mL | MIC [2]: 0.31 µg/mL (≈ 0.651 µM) | MIC [3]: 0.31 µg/mL (≈ 0.651 µM) | responders at 10 mg/kg [4]: 100% | protection on day 25 postinfection [5]: 60-100%

C[C@@H](n1cnc2cc(I)ccc2c1=O)[C@](O)(Cn1cncn1)c1ccc(F)cc1F [Example 74, (1R,2R)-3-[2-(2,4-Difluorophenyl)-2-hydroxy-1-methyl-3-(1-H-1,2,4-triazol-1-yl)propyl]-7-iodoquinazolin-4(3H)-one]
MIC [1]: ≤ 0.03 µg/mL | MIC [2]: 0.31 µg/mL (≈ 0.592 µM) | MIC [3]: 0.31 µg/mL (≈ 0.592 µM) | responders at 1 mg/kg [4]: 100%

C[C@@H](n1cnc2cc(Br)c(F)cc2c1=O)[C@](O)(Cn1cncn1)c1ccc(F)cc1F [Example 75, (1R,2R)-7-Bromo-3-[2-(2,4-difluorophenyl)-2-hydroxy-1-methyl-3-(1H-1,2,4-triazol-1-yl)propyl]-6-fluoroquinazolin-4(3H)-one]
MIC [1]: 0.15 µg/mL (≈ 0.303 µM) | MIC [2]: 1.25 µg/mL (≈ 2.53 µM) | MIC [3]: 2.5 µg/mL (≈ 5.06 µM) | responders at 1 mg/kg [4]: 100%

C[C@@H](n1cnc2cc(-c3ccc(F)cc3)sc2c1=O)[C@](O)(Cn1cncn1)c1ccc(F)cc1F [Example 76, (1R,2R)-3-[2-(2,4-Difluorophenyl)-2-hydroxy-1-methyl-3-(1-H-1,2,4-triazol-1-yl)propyl]-6(4-fluorophenyl)thieno[3,2-d]pyrimidin-4(3H)-one]
MIC [1]: ≤ 0.03 µg/mL | MIC [2]: 0.15 µg/mL (≈ 0.302 µM) | MIC [3]: 1.25 µg/mL (≈ 2.51 µM) | responders at 1 mg/kg [4]: 100%

C[C@@H](n1cnc2cc(-c3ccc(F)cc3)sc2c1=O)[C@](O)(Cn1cncn1)c1ccccc1F [Example 81, (1R,2R)-6-(4-Fluorophenyl)-3-[2-(2-fluorophenyl)-2-hydroxy-1-methyl-3-(1H-1,2,4-triazol-1-yl)propyl]thieno[3,2-d]pyrimidin-4(3H)-one]
MIC [1]: ≤ 0.03 µg/mL | MIC [2]: 0.31 µg/mL (≈ 0.646 µM) | MIC [3]: 10 µg/mL (≈ 20.9 µM) | responders at 1 mg/kg [4]: 100%
